SMILES strings stand for the structures. Structures can show the parent of a compound that is named as a salt.

The test system of one experiment is HMOX1. Description: HMOX1 Protein Assay (immunostaining of HO-1 in NHLF cells, GE InCell 1000). It is filed as cell-based. Conditions: Homo sapiens, fold change above DMSO treated cells, 3 μM compound (asterisk), 16 h. An outline of the steps:
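Fold induction of HO-1 over vehicle, normally at 5 μM compound (asterisk marks 3 μM), in 0.8% DMSO medium. Normal human lung fibroblasts were treated 16 h, then paraformaldehyde-fixed, anti-HO-1/Alexa 488 stained with Hoechst, and read by high-content imaging.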
Molecule `C[C@@H](NC(=O)c1ccc2c(c1)nc(Nc1nc3ccc(Cl)cc3s1)n2C)C(=O)N(C)C` [Example 467, 2-(6-Chloro-benzothiazol-2-ylamino)-1-methyl-1H-benzoimidazole-5-carboxylic acid ((R)-1-dimethylcarbamoyl-ethyl)-amide] returned a fold induction at 3 µM of 22.3.
On the same count and under the same terms, the result for `C[C@@H](O)CNC(=O)c1ccc2c(c1)nc(Nc1nc3ccc(Cl)cc3s1)n2C` [Example 203, 2-(6-Chloro-benzothiazol-2-ylamino)-1-methyl-1H-benzoimidazole-5-carboxylic acid ((R)-2-hydroxy-propyl)-amide] reads 18.7.
Same read-out and setting: for `Cn1c(Nc2nc3ccc(C(F)(F)F)cc3s2)nc2cc(C(=O)NCC(=O)N3CCOCC3)ccc21` [Example 422, 1-Methyl-2-(6-trifluoromethyl-benzothiazol-2-ylamino)-1H-benzoimidazole-5-carboxylic acid (2-morpholin-4-yl-2-oxo-ethyl)-amide] the value was 25; for `Cn1c(Nc2nc3ccc(Cl)cc3s2)nc2cc(C(=O)NC[C@H]3CC[C@H](O)CC3)ccc21` [Example 233, 2-(6-Chloro-benzothiazol-2-ylamino)-1-methyl-1H-benzoimidazole-5-carboxylic acid (trans-4-hydroxy-cyclohexylmethyl)-amide], 28.
`C[C@@H](NC(=O)c1ccc2c(c1)nc(Nc1nc3ccc(Cl)cc3s1)n2C)C(=O)N1CCN(C)CC1` [Example 469, 2-(6-Chloro-benzothiazol-2-ylamino)-1-methyl-1H-benzoimidazole-5-carboxylic acid [(R)-1-methyl-2-(4-methyl-piperazin-1-yl)-2-oxo-ethyl]-amide]: the fold induction at 3 µM was 26.1.
The same measure, in the same setting: the result for `Cn1c(Nc2nc3ccc(C(F)(F)F)cc3s2)nc2cc(C(=O)NCCCCO)ccc21` [Example 221, 1-Methyl-2-(6-trifluoromethyl-benzothiazol-2-ylamino)-1H-benzoimidazole-5-carboxylic acid (4-hydroxy-butyl)-amide] reads 26; that for `C[C@H](NC(=O)c1ccc2c(c1)nc(Nc1nc3ccc(C(F)(F)F)cc3s1)n2C)C(=O)N(C)C` [Example 463, 1-Methyl-2-(6-trifluoromethyl-benzothiazol-2-ylamino)-1H-benzoimidazole-5-carboxylic acid ((S)-1-dimethylcarbamoyl-ethyl)-amide], 26.7.

The experiment is the same for the next values; noted with them: Homo sapiens, fold change above DMSO treated cells, 5 μM compound, 16 h.
Consider `CN(C(=O)CNC(=O)c1ccc2c(c1)nc(Nc1nc3ccc(Cl)cc3s1)n2C)C1CCCNC1` (centres unmarked) [Example 396, 2-(6-Chloro-benzothiazol-2-ylamino)-1-methyl-1H-benzoimidazole-5-carboxylic acid [(methyl-piperidin-3-yl-carbamoyl)-methyl]-amide hydrochloride], for which the fold induction at 5 µM worked out at 36.
In turn, `CCn1c(Nc2nc3ccc(Cl)cc3s2)nc2cc(C(=O)NCCF)ccc21` [Example 176, 2-(6-Chloro-benzothiazol-2-ylamino)-1-ethyl-1H-benzoimidazole-5-carboxylic acid (2-fluoro-ethyl)-amide] yielded a fold induction at 5 µM of 25.8.
Still for that read-out and setting: the result for `Cn1c(Nc2nc3ccc(OC(F)(F)F)cc3s2)nc2cc(C(=O)NCc3nccs3)ccc21` [Example 96, 1-Methyl-2-(6-trifluoromethoxy-benzothiazol-2-ylamino)-1H-benzoimidazole-5-carboxylic acid (thiazol-2-ylmethyl)-amide] reads 12; that for `CN1CCC(N(C)C(=O)CNC(=O)c2ccc3c(c2)nc(Nc2nc4ccc(Cl)cc4s2)n3C)C1` (centres unmarked) [Example 395, 2-(6-Chloro-benzothiazol-2-ylamino)-1-methyl-1H-benzoimidazole-5-carboxylic acid {[methyl-(1-methyl-pyrrolidin-3-yl)-carbamoyl]-methyl}-amide], 72.
Same read-out and setting: the result for `Cn1c(Nc2nc3ccc(OC(F)(F)F)cc3s2)nc2cc(C(=O)NCCC3CCOCC3)ccc21` [Example 264, 1-Methyl-2-(6-trifluoromethoxy-benzothiazol-2-ylamino)-1H-benzoimidazole-5-carboxylic acid [2-(tetrahydro-pyran-4-yl)-ethyl]-amide] reads 22.9; that for `CN[C@H]1CCN(C(=O)CNC(=O)c2ccc3c(c2)nc(Nc2nc4ccc(OC(F)(F)F)cc4s2)n3C)C1` [Example 414, 1-Methyl-2-(6-trifluoromethoxy-benzothiazol-2-ylamino)-1H-benzoimidazole-5-carboxylic acid [2-((S)-3-methylamino-pyrrolidin-1-yl)-2-oxo-ethyl]-amide hydrochloride], 25.7.
In turn, `CCn1c(Nc2nc3ccc(OC(F)(F)F)cc3s2)nc2cc(C(=O)NC)ccc21` [Example 155, 1-Ethyl-2-(6-trifluoromethoxy-benzothiazol-2-ylamino)-1H-benzoimidazole-5-carboxylic acid methylamide] displayed a fold induction at 5 µM of 24.3.
Still for that read-out and setting: for `Cn1c(Nc2nc3ccc(C(F)(F)F)cc3s2)nc2cc(C(=O)O)ccc21` [Example 24, 1-Methyl-2-(6-trifluoromethyl-benzothiazol-2-ylamino)-1H-benzoimidazole-5-carboxylic acid] the value was 20.7.
On the same count and under the same terms, the result for `Cn1c(Nc2nc3ccc(OC(F)(F)F)cc3s2)nc2cc(C(=O)NCCn3cccn3)ccc21` [Example 328, 1-Methyl-2-(6-trifluoromethoxy-benzothiazol-2-ylamino)-1H-benzoimidazole-5-carboxylic acid (2-pyrazol-1-yl-ethyl)-amide] reads 29.4.
On the same count and under the same terms, for `Cn1c(Nc2nc3ccc(OC(F)(F)F)cc3s2)nc2cc(C(=O)NCCCO)ccc21` [Example 13, 1-Methyl-2-(6-trifluoromethoxy-benzothiazol-2-ylamino)-1H-benzoimidazole-5-carboxylic acid (3-hydroxy-propyl)-amide] the value was 20.1.
Turning to `Cn1c(Nc2nc3ccc(Cl)cc3s2)nc2cc(C(=O)O)ccc21` [Example 29, 2-(6-Chloro-benzothiazol-2-ylamino)-1-methyl-1H-benzoimidazole-5-carboxylic acid], the fold induction at 5 µM was found to be 13.9.
Still for that read-out and setting: for `Cn1c(Nc2nc3ccc(OC(F)(F)F)cc3s2)nc2cc(C(=O)NCCOCCO)ccc21` [Example 46, 1-Methyl-2-(6-trifluoromethoxy-benzothiazol-2-ylamino)-1H-benzoimidazole-5-carboxylic acid [2-(2-hydroxy-ethoxy)-ethyl]-amide] the value was 17.9.
`Cn1c(Nc2nc3ccc(OC(F)(F)F)cc3s2)nc2cc(C(=O)NCC(=O)N3CCC(O)C3)ccc21` (centres unmarked) [Example 398, 1-Methyl-2-(6-trifluoromethoxy-benzothiazol-2-ylamino)-1H-benzoimidazole-5-carboxylic acid [2-(3-hydroxy-pyrrolidin-1-yl)-2-oxo-ethyl]-amide]: the fold induction at 5 µM turned out to be 31.7.
The same measure, in the same setting: for `CCn1c(Nc2nc3ccc(OC(F)(F)F)cc3s2)nc2cc(C(=O)OC)ccc21` [Example 153, 1-Ethyl-2-(6-trifluoromethoxy-benzothiazol-2-ylamino)-1H-benzoimidazole-5-carboxylic acid methyl ester] the value was 4.
In the case of `CN1CCN(C(=O)CNC(=O)c2ccc3c(c2)nc(Nc2nc4ccc(OC(F)(F)F)cc4s2)n3C)CC1` [Example 137, 1-Methyl-2-(6-trifluoromethoxy-benzothiazol-2-ylamino)-1H-benzimidazole-5-carboxylic acid [2-(4-methyl-piperazin-1-yl)-2-oxo-ethyl]-amide], the fold induction at 5 µM came out at 6.
The same measure, in the same setting: for `C[C@H](NC(=O)c1ccc2c(c1)nc(Nc1nc3ccc(OC(F)(F)F)cc3s1)n2C)C(=O)N(C)C` [Example 149, 1-Methyl-2-(6-trifluoromethoxy-benzothiazol-2-ylamino)-1H-benzoimidazole-5-carboxylic acid ((S)-1-dimethylcarbamoyl-ethyl)-amide] the value was 38.7.
Same read-out and setting: the result for `Cn1c(Nc2nc3ccc(Cl)cc3s2)nc2cc(C(=O)NC3CCN(CCC(=O)O)C3)ccc21` (centres unmarked) [Example 299, 3-(3-{[2-(6-Chloro-benzothiazol-2-ylamino)-1-methyl-1H-benzoimidazole-5-carbonyl]-amino}-pyrrolidin-1-yl)-propionic acid] reads 16.7; that for `CCn1c(Nc2nc3ccc(C(F)(F)F)cc3s2)nc2cc(C(=O)NC)ccc21` [Example 180, 1-Ethyl-2-(6-trifluoromethyl-benzothiazol-2-ylamino)-1H-benzoimidazole-5-carboxylic acid methylamide], 12.4.
The same measure, in the same setting: for `Cn1c(Nc2nc3ccc(OC(F)(F)F)cc3s2)nc2cc(C(=O)NCCOCCN)ccc21` [Example 268, 1-Methyl-2-(6-trifluoromethoxy-benzothiazol-2-ylamino)-1H-benzoimidazole-5-carboxylic acid [2-(2-amino-ethoxy)-ethyl]-amide] the value was 28.4; for `CN(C)CC(=O)N1CCC(CNC(=O)c2ccc3c(c2)nc(Nc2nc4ccc(Cl)cc4s2)n3C)CC1` [Example 314, 2-(6-Chloro-benzothiazol-2-ylamino)-1-methyl-1H-benzoimidazole-5-carboxylic acid [1-(2-dimethylamino-acetyl)-piperidin-4-ylmethyl]-amide], 79.7.
The molecule `CCOCCNC(=O)c1cc2nc(Nc3nc4ccc(OC(F)(F)F)cc4s3)n(C)c2cc1OC` [Example 65, 6-Methoxy-1-methyl-2-(6-trifluoromethoxy-benzothiazol-2-ylamino)-1H-benzoimidazole-5-carboxylic acid (2-ethoxy-ethyl)-amide] registered a fold induction at 5 µM of 10.2.
In the case of `CCOCCCNC(=O)c1ccc2c(c1)nc(Nc1nc3ccc(OC(F)(F)F)cc3s1)n2C` [Example 14, 1-Methyl-2-(6-trifluoromethoxy-benzothiazol-2-ylamino)-1H-benzoimidazole-5-carboxylic acid (3-ethoxy-propyl)-amide], the fold induction at 5 µM was 22.

Values taken from patent US8759535B2, “Substituted fused imidazole derivatives, pharmaceutical compositions, and methods of use thereof” (High Point Pharmaceuticals, LLC, priority 2010, dated 2014).
